# pEC50, pKi: −log10 of the molar value.
# Key:
# BRD4 (BDI_K57-E168) = BRD4 (BDI_K57-E168) (Homo sapiens (Human), UniProt O60885); assay: TR-FRET bromodomain binding assay, BRD4 first bromodomain; details: His-tagged BD1, Alexa647-labeled probe 100 nM
# Summary of the method: (§1)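 Affinity for each isolated His-tagged domain was measured as competition with a fluorescent Alexa647 BET-inhibitor probe in a TR-FRET format at pH 6.0, 1 h room temperature incubation. Ki values were calculated from fitted IC50s, probe Kd and probe level (100 nM BDI, 30 nM BDII).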
# BRD4 (BDII_E352-M457) = BRD4 (BDII_E352-M457) (Homo sapiens (Human), UniProt O60885); assay: TR-FRET bromodomain binding assay, BRD4 second bromodomain; details: His-tagged BD2, Alexa647-labeled probe 30 nM
# Summary of the method: as §1
# [1] = system: breast cancer cell line MX-1; assay: MX-1 cell line proliferation assay, Method B; type: cell-based; details: Homo sapiens, MX1; MX-1 cells, 384-well, 72 hours, Cell Titer Glo; read-out: Cellular proliferation: EC50 Method B
# Protocol: The impact of compounds of the Examples on cancer cell proliferation was determined using the breast cancer cell line MX-1 (ATCC) in a 3-day proliferation assay and the data are reported in Table 1.
# Method B: MX-1 cells were maintained in RPMI 1640 medium (Sigma) supplemented with 10% FBS at 37 C.° and an atmosphere of 5% CO2. For compound testing, MX-1 cells were plated in 384-well white with clear, flat bottom plates at a density of 750 cells/well in 25 μL of culture media and incubated at 370 overnight to allow cell adhesion and spreading. Ten point compound dilution series were prepared in DMSO via a 3-fold serial dilution from either […] or 1 μM stock and added directly to the appropriate wells of the MX-1 cell plate by an ECHO liquid handler (Labcyte). The final compound concentrations in the wells were 10, 3.25, 1, 0.25, 0.124, 0.040, 0.0124, 0.0031, 0.0015 and 0.0005 μM or 1, 0.33, 0.1, 0.025, 0.0124, 0.004, 0.0012, 0.0003, 0.00015, 0.00005 μM, depending on the concentration of the compound stock solution.
# Luminescence readings from the Cell Titer Glo assay were normalized to the DMSO treated cells and analyzed using Accelrys Assay Explorer 3.3 software with sigmoidal curve fitting to obtain ECsos. The minimum significant ratio (MSR) was determined to evaluate assay reproducibility (Eastwood et al., (2006) J Biomol Screen, 11: 253-261). The overall MSR was determined to be 3.3 and a moving MSR (last six run MSR overtime) has averaged
Structure (SMILES),pKi (BRD4 (BDI_K57-E168)),pKi (BRD4 (BDII_E352-M457)),pEC50 [1]
"CCNC(=O)c1cc2c(-c3ccc(C(=O)N(CC#N)C(C)Cc4ccccc4)cc3Oc3c(C)cccc3C)cn(C)c(=O)c2[nH]1 (stereo not drawn) [Example 166, 4-{4-[(cyanomethyl)(1-phenylpropan-2-yl)carbamoyl]-2-(2,6-dimethylphenoxy)phenyl}-N-ethyl-6-methyl-7-oxo-6,7-dihydro-1H-pyrrolo[2,3-c]pyridine-2-carboxamide]",< 4.90,7.76,5.52
"CCNC(=O)c1cc2c(-c3cc(S(=O)(=O)CC)ccc3Oc3c(C)cccc3CCC3CCCC3)cn(C)c(=O)c2[nH]1 [Example 164, 4-{2-[2-(2-cyclopentylethyl)-6-methylphenoxy]-5-(ethylsulfonyl)phenyl}-N-ethyl-6-methyl-7-oxo-6,7-dihydro-1H-pyrrolo[2,3-c]pyridine-2-carboxamide]",–,7.82,5.00
"CCNC(=O)c1cc2c(-c3ccc(C(=O)N(CC#N)CC(C)c4ccccc4)cc3Oc3c(C)cccc3C)cn(C)c(=O)c2[nH]1 (stereo not drawn) [Example 167, 4-{4-[(cyanomethyl)(2-phenylpropyl)carbamoyl]-2-(2,6-dimethylphenoxy)phenyl}-N-ethyl-6-methyl-7-oxo-6,7-dihydro-1H-pyrrolo[2,3-c]pyridine-2-carboxamide]",< 4.90,7.46,5.69
"Cn1cc(-c2cc(S(C)(=O)=O)ccc2Oc2cccc(C(=O)NC3CC3)c2)c2cc[nH]c2c1=O [Example 21, N-cyclopropyl-3-[2-(6-methyl-7-oxo-6,7-dihydro-1H-pyrrolo[2,3-c]pyridin-4-yl)-4-(methylsulfonyl)phenoxy]benzamide]",7.48,8.00,–
"Cn1cc(-c2cc(S(C)(=O)=O)ccc2Oc2cccc(NS(=O)(=O)c3ccccc3C#N)c2)c2cc[nH]c2c1=O [Example 55, 2-cyano-N-{3-[2-(6-methyl-7-oxo-6,7-dihydro-1H-pyrrolo[2,3-c]pyridin-4-yl)-4-(methylsulfonyl)phenoxy]phenyl}benzenesulfonamide]",8.16,8.55,–
"Cn1cc(-c2cc(S(C)(=O)=O)ccc2N[C@H]2CC[C@H](NCc3cccs3)CC2)c2cc[nH]c2c1=O [Example 107, 6-methyl-4-[5-(methylsulfonyl)-2-({trans-4-[(thiophen-2-ylmethyl)amino]cyclohexyl}amino)phenyl]-1,6-dihydro-7H-pyrrolo[2,3-c]pyridin-7-one]",8.52,8.05,–
"CCNC(=O)c1cc2c(-c3cc(S(=O)(=O)CC)ccc3Oc3c(C)cccc3NCC3CCOC3)cn(C)c(=O)c2[nH]1 (stereo not drawn) [Example 133, N-ethyl-4-[5-(ethylsulfonyl)-2-{2-methyl-6-[(tetrahydrofuran-3-ylmethyl)amino]phenoxy}phenyl]-6-methyl-7-oxo-6,7-dihydro-1H-pyrrolo[2,3-c]pyridine-2-carboxamide]",5.67,7.69,–
"Cn1cc(-c2cc(S(C)(=O)=O)ccc2Oc2cccc(NCC3CC3)c2)c2cc[nH]c2c1=O [Example 80, 4-[2-{3-[(cyclopropylmethyl)amino]phenoxy}-5-(methylsulfonyl)phenyl]-6-methyl-1,6-dihydro-7H-pyrrolo[2,3-c]pyridin-7-one]",7.72,8.34,–
"Cn1cc(-c2cc(S(C)(=O)=O)ccc2Oc2ccc(F)cc2F)c2cc(CNCCC(N)=O)[nH]c2c1=O [Example 159, 3-[({4-[2-(2,4-difluorophenoxy)-5-(methylsulfonyl)phenyl]-6-methyl-7-oxo-6,7-dihydro-1H-pyrrolo[2,3-c]pyridin-2-yl}methyl)amino]propanamide]",6.64,6.81,–
"Cn1cc(-c2cc(S(C)(=O)=O)ccc2Oc2cccc(C(=O)N3CCN(C4CCCC4)CC3)c2)c2cc[nH]c2c1=O [Example 28, 4-[2-{3-[(4-cyclopentylpiperazin-1-yl)carbonyl]phenoxy}-5-(methylsulfonyl)phenyl]-6-methyl-1,6-dihydro-7H-pyrrolo[2,3-c]pyridin-7-one]",7.89,7.96,–
"CCS(=O)(=O)c1ccc(Oc2c(C)cccc2Cl)c(-c2cn(C)c(=O)c3[nH]c(C(=O)NC(C)C(=O)NC)cc23)c1 (stereo not drawn) [Example 121, 4-[2-(2-chloro-6-methylphenoxy)-5-(ethylsulfonyl)phenyl]-6-methyl-N-[1-(methylamino)-1-oxopropan-2-yl]-7-oxo-6,7-dihydro-1H-pyrrolo[2,3-c]pyridine-2-carboxamide]",7.21,8.14,–

# Continued, values first:
pKi (BRD4 (BDI_K57-E168)),pKi (BRD4 (BDII_E352-M457)),pEC50 [1],Structure (SMILES)
5.80,8.08,6.00,"CCNC(=O)c1cc2c(-c3ccc(C(=O)N(CCN(C)C)c4ccccc4)cc3Oc3c(C)cccc3C)cn(C)c(=O)c2[nH]1 [Example 179, 4-[4-{[2-(dimethylamino)ethyl](phenyl)carbamoyl}-2-(2,6-dimethylphenoxy)phenyl]-N-ethyl-6-methyl-7-oxo-6,7-dihydro-1H-pyrrolo[2,3-c]pyridine-2-carboxamide]"
< 4.90,6.75,5.12,"CCNC(=O)c1cc2c(-c3ccc(C(=O)N(c4ccccc4)C4CCCCC4)cc3Oc3c(C)cccc3C)cn(C)c(=O)c2[nH]1 [Example 186, 4-{4-[cyclohexyl(phenyl)carbamoyl]-2-(2,6-dimethylphenoxy)phenyl}-N-ethyl-6-methyl-7-oxo-6,7-dihydro-1H-pyrrolo[2,3-c]pyridine-2-carboxamide]"
5.65,7.76,5.62,"CCNC(=O)c1cc2c(-c3ccc(C(=O)N(CCC#N)c4cccc(Cl)c4)cc3Oc3c(C)cccc3C)cn(C)c(=O)c2[nH]1 [Example 175, 4-{4-[(3-chlorophenyl)(2-cyanoethyl)carbamoyl]-2-(2,6-dimethylphenoxy)phenyl}-N-ethyl-6-methyl-7-oxo-6,7-dihydro-1H-pyrrolo[2,3-c]pyridine-2-carboxamide]"
5.64,7.65,5.51,"CCNC(=O)c1cc2c(-c3ccc(C(=O)N(CC#N)c4cccc(Cl)c4)cc3Oc3c(C)cccc3C)cn(C)c(=O)c2[nH]1 [Example 168, 4-{4-[(3-chlorophenyl)(cyanomethyl)carbamoyl]-2-(2,6-dimethylphenoxy)phenyl}-N-ethyl-6-methyl-7-oxo-6,7-dihydro-1H-pyrrolo[2,3-c]pyridine-2-carboxamide]"
5.53,7.84,5.57,"CCNC(=O)c1cc2c(-c3ccc(C(=O)N(CCN(C)C)c4ccnc(F)c4)cc3Oc3c(C)cccc3C)cn(C)c(=O)c2[nH]1 [Example 185, 4-[4-{[2-(dimethylamino)ethyl](2-fluoropyridin-4-yl)carbamoyl}-2-(2,6-dimethylphenoxy)phenyl]-N-ethyl-6-methyl-7-oxo-6,7-dihydro-1H-pyrrolo[2,3-c]pyridine-2-carboxamide]"
5.76,8.04,5.40,"CCNC(=O)c1cc2c(-c3ccc(C(=O)N(CCN(C)C)c4ccccn4)cc3Oc3c(C)cccc3C)cn(C)c(=O)c2[nH]1 [Example 181, 4-[4-{[2-(dimethylamino)ethyl](pyridin-2-yl)carbamoyl}-2-(2,6-dimethylphenoxy)phenyl]-N-ethyl-6-methyl-7-oxo-6,7-dihydro-1H-pyrrolo[2,3-c]pyridine-2-carboxamide]"
5.55,7.85,5.83,"CCNC(=O)c1cc2c(-c3ccc(C(=O)N(CC#N)c4ccc(OC)cc4)cc3Oc3c(C)cccc3C)cn(C)c(=O)c2[nH]1 [Example 183, 4-{4-[(cyanomethyl)(4-methoxyphenyl)carbamoyl]-2-(2,6-dimethylphenoxy)phenyl}-N-ethyl-6-methyl-7-oxo-6,7-dihydro-1H-pyrrolo[2,3-c]pyridine-2-carboxamide]"
7.00,8.60,6.54,"Cc1cccc(C)c1Oc1ccc(S(C)(=O)=O)cc1-c1cn(C)c(=O)c2[nH]c(C(=O)NCCCN(C)C3CCCCC3)cc12 [Example 187, N-{3-[cyclohexyl(methyl)amino]propyl}-4-[2-(2,6-dimethylphenoxy)-5-(methylsulfonyl)phenyl]-6-methyl-7-oxo-6,7-dihydro-1H-pyrrolo[2,3-c]pyridine-2-carboxamide]"
5.06,7.51,5.22,"CCNC(=O)c1cc2c(-c3ccc(C(=O)N(CCCC(=O)OCC)c4ccccc4)cc3Oc3c(C)cccc3C)cn(C)c(=O)c2[nH]1 [Example 180, ethyl 4-[{3-(2,6-dimethylphenoxy)-4-[2-(ethylcarbamoyl)-6-methyl-7-oxo-6,7-dihydro-1H-pyrrolo[2,3-c]pyridin-4-yl]benzoyl}(phenyl)amino]butanoate]"

# Source: US9957263B2, “Bromodomain inhibitors” (AbbVie Inc., priority 2013, dated 2018)
